Test results published in PubChem BioAssay AID330 (DTP/NCI, 2004).
“And” between values parts separate entries of the source, which are not always exact repeats. Equal values may be shown once. Toxic doses and inconclusive results are not listed. Rule for the calls: active = survival T/C of 150% or more; inactive = T/C below 125% in these data.

Test system: P388 leukemia ip, CD2F1 mice, survival T/C
Assay: NCI In Vivo Anticancer Drug Screen. Data for tumor model P388 Leukemia (intraperitoneal) in CD2F1 (CDF1) mice
Conditions: endpoint: median survival time, higher = longer survival
In short: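 Mice carrying the transplanted tumor received test compound or vehicle. Survival was recorded in each group, and the value is the treated-group measurement divided by that of the vehicle-treated control group.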

[1] = dose: 12.5 mg/kg/injection, schedule: Q01DX005 (ip), vehicle: saline
[2] = dose: 25.0 mg/kg/injection, schedule: Q01DX005 (ip), vehicle: saline
[3] = dose: 50.0 mg/kg/injection, schedule: Q01DX005 (ip), vehicle: saline
[4] = dose: 50.0 mg/kg/injection, schedule: Q01DX009 (ip), vehicle: saline with Tween-80
[5] = dose: 200.0 mg/kg/injection, schedule: Q01DX009 (ip), vehicle: saline with Tween-80
[6] = dose: 50.0 mg/kg/injection, schedule: Q01DX005 (ip), vehicle: saline with Tween-80
[7] = dose: 100.0 mg/kg/injection, schedule: Q01DX005 (ip), vehicle: saline with Tween-80
[8] = dose: 50.0 mg/kg/injection, schedule: Q01DX005 (ip), vehicle: Klucel (hydroxypropylcellulose) (HPC)
[9] = dose: 100.0 mg/kg/injection, schedule: Q01DX005 (ip), vehicle: Klucel (hydroxypropylcellulose) (HPC)
[10] = dose: 200.0 mg/kg/injection, schedule: Q01DX005 (ip), vehicle: Klucel (hydroxypropylcellulose) (HPC)
[11] = dose: 60.0 mg/kg/injection, schedule: Q01DX005 (ip), vehicle: Klucel (hydroxypropylcellulose) (HPC)
[12] = dose: 120.0 mg/kg/injection, schedule: Q01DX005 (ip), vehicle: Klucel (hydroxypropylcellulose) (HPC)
[13] = dose: 240.0 mg/kg/injection, schedule: Q01DX005 (ip), vehicle: Klucel (hydroxypropylcellulose) (HPC)
[14] = dose: 100.0 mg/kg/injection, schedule: Q01DX009 (ip), vehicle: saline with Tween-80
[15] = dose: 200.0 mg/kg/injection, schedule: Q01DX005 (ip), vehicle: saline with Tween-80
[16] = dose: 100.0 mg/kg/injection, schedule: Q01DX005 (ip), vehicle: saline
[17] = dose: 100.0 mg/kg/injection, schedule: Q04DX003 (ip), vehicle: saline with Tween-80
[18] = dose: 200.0 mg/kg/injection, schedule: Q04DX003 (ip), vehicle: saline with Tween-80
[19] = dose: 400.0 mg/kg/injection, schedule: Q04DX003 (ip), vehicle: saline with Tween-80

Measured: T/C

BrCc1cccnc1
inactive: [1] 103 % of control | [2] 103 % of control | [3] 103 % of control and 110 % of control

CN(C)c1ccc(N)c(N)c1
inactive: dose: 3.12 mg/kg/injection, schedule: Q01DX005 (ip), vehicle: saline 99 % of control | dose: 6.25 mg/kg/injection, schedule: Q01DX005 (ip), vehicle: saline 99 % of control | [1] 103 % of control | [2] 105 % of control and 106 % of control | dose: 100.0 mg/kg/injection, schedule: Q01DX009 (ip), vehicle: saline 98 % of control

Cc1ccc(N=C(N=C(NC(=O)c2ccccc2)c2ccccc2)c2ccccc2)cc1
inactive: dose: 12.5 mg/kg/injection, schedule: Q01DX009 (ip), vehicle: saline with Tween-80 99 % of control | dose: 25.0 mg/kg/injection, schedule: Q01DX009 (ip), vehicle: saline with Tween-80 97 % of control | [4] 89 % of control and 93 % of control (2×) | [5] 95 % of control

O=c1c(N2CCOCC2)c(N2CCOCC2)c1=O
inactive: dose: 100.0 mg/kg/injection, schedule: Q01DX001 (ip), vehicle: saline with Tween-80 100 % of control | dose: 200.0 mg/kg/injection, schedule: Q01DX001 (ip), vehicle: saline with Tween-80 95 % of control | dose: 400.0 mg/kg/injection, schedule: Q01DX001 (ip), vehicle: saline with Tween-80 90 % of control

CN(C)c1ccc(/C=N/Nc2nnc3c4ccccc4n(C)c3n2)cc1
inactive: dose: 12.5 mg/kg/injection, schedule: Q01DX005 (ip), vehicle: saline with Tween-80 91 % of control | dose: 25.0 mg/kg/injection, schedule: Q01DX005 (ip), vehicle: saline with Tween-80 97 % of control

Nc1nnc2cc(Br)ccc2n1
inactive: dose: 50.0 mg/kg/injection, schedule: Q01DX009 (ip), vehicle: Klucel (hydroxypropylcellulose) (HPC) 102 % of control | dose: 100.0 mg/kg/injection, schedule: Q01DX009 (ip), vehicle: Klucel (hydroxypropylcellulose) (HPC) 99 % of control | dose: 200.0 mg/kg/injection, schedule: Q01DX009 (ip), vehicle: Klucel (hydroxypropylcellulose) (HPC) 100 % of control

CSCCC(NC(=O)CN(C)C(=O)OCc1ccccc1)C(=O)O (stereo unspecified)
inactive: [6] 100 % of control | [7] 100 % of control

O=C(Nc1ccc(C2=NCCN2)cc1)c1cc(C(=O)Nc2ccc(C3=NCCN3)cc2)cc([N+](=O)[O-])c1
inactive: dose: 167.0 mg/kg/injection, schedule: Q01DX010 (ip), vehicle: saline 104 % of control | dose: 250.0 mg/kg/injection, schedule: Q01DX010 (ip), vehicle: saline 100 % of control | dose: 375.0 mg/kg/injection, schedule: Q01DX010 (ip), vehicle: saline 100 % of control | dose: 512.0 mg/kg/injection, schedule: Q01DX010 (ip), vehicle: saline 95 % of control

O=C1OC(c2ccccc2)=N/C1=C/c1cccn(-c2ccccc2)c1=S
inactive: [8] 94 % of control | [9] 87 % of control | [10] 86 % of control

CC(C)=NNC1=NC(CC(C)C)P(=O)(NCCCCCCNP2(=O)SC(NN=C(C)C)=NC2CC(C)C)S1 (stereo unspecified)
inactive: [11] 97 % of control | [12] 103 % of control | [13] 95 % of control

NCCC1CCCCN1 (stereo unspecified)
inactive: dose: 50.0 mg/kg/injection, schedule: Q01DX001 (ip), vehicle: saline 95 % of control | dose: 100.0 mg/kg/injection, schedule: Q01DX001 (ip), vehicle: saline 105 % of control | dose: 200.0 mg/kg/injection, schedule: Q01DX001 (ip), vehicle: saline 105 % of control

COC1/C=C/OC2(C)Oc3c(C)c(O)c4c(O)c(c(C=NN5C(C)CN(Cc6ccc(Cl)cc6)CC5C)c(O)c4c3C2=O)NC(=O)/C(C)=C/C=C/C(C)C(O)C(C)C(O)C(C)C(OC(C)=O)C1C (stereo unspecified)
inactive: [4] 98 % of control | [14] 95 % of control | [5] 95 % of control

Nc1ccc(C(=O)CC(O)(C(F)(F)F)C(F)(F)F)cc1
inactive: dose: 75.0 mg/kg/injection, schedule: Q04DX003 (ip), vehicle: saline with Tween-80 95 % of control | dose: 150.0 mg/kg/injection, schedule: Q04DX003 (ip), vehicle: saline with Tween-80 95 % of control | dose: 300.0 mg/kg/injection, schedule: Q04DX003 (ip), vehicle: saline with Tween-80 100 % of control

Nc1ccccc1C(=O)Nc1ccc(Cl)cc1Cl
inactive: [6] 104 % of control | [7] 92 % of control | [15] 92 % of control

Cc1[nH]c2ccc(N(C)C)cc2c(=O)c1CN(Cc1ccccc1)Cc1c(C)[nH]c2ccc(N(C)C)cc2c1=O
inactive: dose: 7.5 mg/kg/injection, schedule: Q01DX005 (ip), vehicle: Klucel (hydroxypropylcellulose) (HPC) 94 % of control | dose: 15.0 mg/kg/injection, schedule: Q01DX005 (ip), vehicle: Klucel (hydroxypropylcellulose) (HPC) 89 % of control | dose: 30.0 mg/kg/injection, schedule: Q01DX005 (ip), vehicle: Klucel (hydroxypropylcellulose) (HPC) 86 % of control

CCC(=O)N/C(N)=N\C(N)=O
inactive: [3] 95 % of control | [16] 98 % of control

O=C(O)C(Cc1cccs1)NC(=O)C(F)(F)F (stereo unspecified)
inactive: dose: 50.0 mg/kg/injection, schedule: Q01DX009 (ip), vehicle: saline + alcohol 99 % of control | dose: 100.0 mg/kg/injection, schedule: Q01DX009 (ip), vehicle: saline + alcohol 93 % of control | dose: 200.0 mg/kg/injection, schedule: Q01DX009 (ip), vehicle: saline + alcohol 92 % of control

O=c1sc2ccccc2n1CN(CCO)Cn1c(=O)sc2ccccc21
inactive: [8] 91 % of control | [9] 89 % of control | [10] 90 % of control

CCOC(=O)/C=C/C(CO)OC(/C=C/C(=O)OCC)n1cnc2c(N)ncnc21 (stereo unspecified)
inactive: dose: 100.0 mg/kg/injection, schedule: Q04DX002 (ip), vehicle: Klucel (hydroxypropylcellulose) (HPC) 101 % of control | dose: 200.0 mg/kg/injection, schedule: Q04DX002 (ip), vehicle: Klucel (hydroxypropylcellulose) (HPC) 108 % of control | dose: 400.0 mg/kg/injection, schedule: Q04DX002 (ip), vehicle: Klucel (hydroxypropylcellulose) (HPC) 111 % of control

O=C(Nc1ccc([N+](=O)[O-])cc1)OCCI
inactive: [17] 101 % of control | [18] 92 % of control | [19] 92 % of control

COC(=O)[C@@H]1[C@H]2CC(C)(C)C[C@H]2C2=CCC[C@@H]21
inactive: dose: 18.5 mg/kg/injection, schedule: Q01DX005 (ip), vehicle: suspension in saline 96 % of control | dose: 37.0 mg/kg/injection, schedule: Q01DX005 (ip), vehicle: suspension in saline 98 % of control | dose: 74.0 mg/kg/injection, schedule: Q01DX005 (ip), vehicle: suspension in saline 98 % of control

O=c1c2ccccc2c(-c2ccc(N(CCCl)CCCl)cc2)cn1CCCl
inactive: dose: 25.0 mg/kg/injection, schedule: Q04DX003 (ip), vehicle: Klucel (hydroxypropylcellulose) (HPC) 100 % of control | dose: 50.0 mg/kg/injection, schedule: Q04DX003 (ip), vehicle: Klucel (hydroxypropylcellulose) (HPC) 114 % of control | dose: 100.0 mg/kg/injection, schedule: Q04DX003 (ip), vehicle: Klucel (hydroxypropylcellulose) (HPC) 107 % of control | dose: 200.0 mg/kg/injection, schedule: Q04DX003 (ip), vehicle: Klucel (hydroxypropylcellulose) (HPC) 115 % of control | dose: 400.0 mg/kg/injection, schedule: Q04DX003 (ip), vehicle: Klucel (hydroxypropylcellulose) (HPC) 100 % of control

Cc1ccc(N)c(C(O)(C(F)(F)F)C(F)(F)F)c1
inactive: [4] 99 % of control | [14] 101 % of control

O=C(c1ccccc1C(=O)N1CCCO1)N1CCCO1
inactive: [11] 93 % of control | [12] 100 % of control | [13] 100 % of control

OC1CC2c3ccccc3C1c1ccccc12 (stereo unspecified)
inactive: [8] 95 % of control | [9] 99 % of control | [10] 100 % of control

C=C(c1ccc(Cl)cc1)c1ccc(OC)c(OC)c1
inactive: [6] 94 % of control | [7] 99 % of control | [15] 97 % of control

O=[N+]([O-])c1c(-c2ccccc2)csc1SSc1scc(-c2ccccc2)c1[N+](=O)[O-]
inactive: [17] 103 % of control | [18] 96 % of control | [19] 100 % of control

CCC1(CC)C(=O)NC(=O)NC1(OC)OC
inactive: [3] 98 % of control | [16] 106 % of control | dose: 200.0 mg/kg/injection, schedule: Q01DX005 (ip), vehicle: saline 100 % of control
